Measurements reported in US20150238444A1, “CHLORHEXIDINE GLUCONATE SOLUBILIZED IN A HYDROPHOBIC MONOACYLGLYCERIDE” (3M INNOVATIVE PROPERTIES COMPANY, priority 2012, published 2015).

Assay: Screening of CHG solubility in hydrophobic vehicles after vacuum-stripping water
Format: physicochemical
Procedure: General Method for Vacuum-Stripping Water from CHG Solutions. A 25 g sample of CHG/water solution (20 wt. CHG) was added to 45 g of the hydrophobic monoacylglyceride of interest in a 200 mL round bottom flask. The flask was put in a 60° C. oil bath and stirred with a magnetic stir bar. Vacuum (less than 3.3 kilopascal (25 Torr)) was pulled until bubbling stopped and the weight had closely approached the theoretical value of 50 grams—usually 30-90 minutes. […] In those cases, after nearly all the water was removed, additional hydrophobic monoacylglyceride was added to bring the final weight to 50 grams.
Screening tests were conducted to determine the solubility of CHG in a variety of hydrophobic vehicles. Samples were prepared by mixing CHG (20 wt. % solution in water, obtained from Xttrium Laboratories Inc., Chicago, Ill.) with the vehicle and vacuum stripping in accordance with the General Method for Vacuum-Stripping Water from CHG Solutions. The resulting concentration of CHG and residual water were determined. Also, the final state of the solution was qualitatively evaluated to determine whether the mixture was transparent and apparently homogenous, or clearly inhomogeneous.

[1] = after vacuum stripping of water from CHG/vehicle mixture

Compound: CCCCCCCCCCCC(=O)OCC(O)CO (stereo not drawn) [Glyceryl monolaurate]
- Experimental Solubility with CHG: Yes
- Final State (CHG 20 wt. %, 75° C.): Homogeneous
- Water wt. % (residual water) [1]: 0.7% wt. %

Compound: CCCCCCCC/C=C\CCCCCCCC(=O)OCC(O)CO (stereo not drawn) [Glyceryl monooleate]
- Experimental Solubility with CHG: Yes
- Final State (CHG 10 wt. %, 23-60° C.): Homogeneous
- Water wt. % (residual water) [1]: 0.3% wt. %

Compound: Polyglycerol-2-Triisostearate
- Experimental Solubility with CHG: No
- Final State (CHG 10 wt. %, 23-60° C.): Inhomogeneous
- CHG wt. % (resulting concentration of CHG in the vehicle) [1]: 10% wt. %

Compound: CCCCCCCC(=O)OCC(O)CO (stereo not drawn) [Glyceryl monocaprylate]
- Experimental Solubility with CHG: Yes
- Final State (CHG 20 wt. %, 23-60° C.): Homogeneous

Compound: Trigyceryl diisostearate
- Experimental Solubility with CHG: No
- Final State (CHG 1 wt. %, 23-60° C.): Inhomogeneous
- Final State (CHG 10 wt. %, 23-60° C.): Inhomogeneous

Compound: CC(C)CCCCCCCCCCCCCCC(=O)OCC(O)CO (stereo not drawn) [Glyceryl monoisostearate]
- Experimental Solubility with CHG: Yes
- Final State (CHG 10 wt. %, 23-60° C.): Homogeneous
- Final State (CHG 16 wt. %, 23-60° C.): Homogeneous
- Final State (CHG 20 wt. %, 60° C.): Homogeneous

Compound: CCCCCCCCCCCCCCCCCC(=O)OCC(O)CO (stereo not drawn) [Glyceryl monostearate]
- Experimental Solubility with CHG: Yes
- Final State (CHG 10 wt. %, 80° C.): Homogeneous
- Water wt. % (residual water) [1]: 0.2% wt. %
